The text below walks through data of a melting point compilation (Tetko et al.; mined from patent text by program, amines drawn as free bases though some values may be those of a salt).

Non-standard residues stand in square brackets, D forms with d. Residues, ends and D or L forms follow the SMILES beside them. ξ: configuration not given here. *: point of attachment. ξPhe(4-NO2) = NC(Cc1ccc([N+](=O)[O-])cc1)C(=O)O; Boc = CC(C)(C)OC(=O)*; OBn = c1ccc(CO*)cc1

In turn, `CN(C(=O)C(F)(F)F)c1ccc2[nH]ncc2c1` registered a melting point of 172 to 174 °C.

As to `CC1Cc2ccc(Br)cc2C(c2ccc([N+](=O)[O-])cc2)=NN1C(=O)C(F)(F)F` (configuration not stated), the melting point is 193 to 196 °C.

Compound `Cc1ccc(Sc2ccccc2C(=O)N(C)C)c([N+](=O)[O-])c1` yielded a melting point of 105 to 106 °C.

Compound `Cc1cc(=O)[nH]c2ccc(OCCCN3CCN(Cc4ccc(Cl)cc4)CC3)cc12` gave a melting point of 195 to 197 °C.

With `CC1(C)OCc2cc(CCNC(=O)C(F)(F)F)ccc2O1`, the melting point is 91 to 93 °C.

As to `CNC(=S)n1nc(Oc2c(Cl)cc(C(F)(F)F)cc2Cl)cc1C`, the melting point fell in the range of 121 to 123 °C.

Take `C[Si](C)(C)C#Cc1ccc(Oc2ccc(C(=O)C(=O)c3cccc(C(=O)C(=O)c4ccc(Oc5ccc(C#C[Si](C)(C)C)cc5)cc4)c3)cc2)cc1`: the melting point was in the range of 110 to 111 °C.

`CON(C)Cc1nc2c(N)nc3ccccc3c2n1CC1CCOCC1`: the melting point lay within 223 to 226 °C.

Regarding `Cc1cc2oc(=O)c3c(c2cc1Cl)CC(N1CC2CCCC(C2)C1)NC3` (configuration not stated), the melting point fell in the range of 147 to 149 °C.

Turning to `CCOC(=O)c1cn(C(C)(C)C)c2nc(NC(=O)c3ccc(C)cc3)sc12`, the melting point fell in the range of 200 to 201 °C.

`COC(=O)C1=C(C)NC(C)=C(C(=O)OC)N1c1cccc(N)c1`: the melting point was in the range of 212 to 213 °C.

Regarding `COC(=O)CCCOc1cc(C(C)C)c2c(c1)S(=O)(=O)N(COC(=O)c1ccccc1)C2=O`, the melting point was 122 to 124 °C.

Turning to `Cc1cn(COCOC(=O)c2ccccc2)c(=O)[nH]c1=O`, the melting point lay within 141 to 143 °C.

On to `O=C(NC(CS)Cc1ccccc1)N1CCN(c2ccccc2)CC1` (single isomer, unassigned; (+)), for which the melting point was found to be 122 °C.

Compound `CNC(=O)c1ccc(N2CCN(Cc3cc(Cc4ccccc4)c4c(c3)NC(=O)C(C)O4)CC2)cc1` (configuration not stated) came in with a melting point of 227 to 231 °C.

As for `CC(C)c1nc(CCCO)n(C)c1Sc1cc(Cl)cc(Cl)c1`, the melting point was in the range of 124 to 125 °C.

In turn, `Nc1cc2c(cc1C(=O)c1ccccc1Cl)CCC2` showed a melting point of 90 to 92 °C.

In the case of `CN1C(C(=O)Nc2cccc(F)c2)=C(O)c2ccc3ccccc3c2S1(=O)=O`, the melting point was in the range of 278 to 279 °C.

`O=C(O)COc1ccc(-c2nn(-c3ccccc3)c3ncccc23)cc1` yielded a melting point of 220 to 222 °C.

The compound `CC(C)OC(N)=C(C#N)C(=N)S` yielded a melting point of 170 °C.

On to `CC(C)(O)c1cccc(Oc2cccc(-c3c(Cc4ccccc4)cnc4c(C(F)(F)F)cccc34)c2)c1`, for which the melting point is < 80 °C.

`CC(CC(=O)O)C(=O)NC1(C(=O)O)CCCC1` (configuration not stated) had a melting point of 169 to 170 °C.

Compound `O=C(O)c1cnn(-c2ccc(Cl)cc2Cl)c1C(F)(F)F` yielded a melting point of 154 to 155 °C.

The compound `Cn1c(C(=O)OC(C)(C)C)c(Br)c2cc(OCc3ccccc3)ccc21` yielded a melting point of 97 to 99 °C.

In turn, `O=C(O)C(O)(C(F)F)C(F)F` gave a melting point of 72.5 to 73.5 °C.

`O=S1(=O)N=CN(C2CCC2)c2cc(Cl)c(Cl)cc21` returned a melting point of 238 to 240 °C.

For the compound `COc1ccc(C2=NN(C3Cc4ccccc4C3)C(=O)[C@H]3CC=CC[C@@H]23)cc1OC` (relative stereo), the melting point was 163 to 164 °C.

`CC(=O)SCC(Cc1ccccc1)C(=O)Nc1cc(C(=O)O)ccc1Cl` (configuration not stated) came in with a melting point of 204 to 206 °C.

In turn, `CSc1nnc(-c2ccc(OCC(O)CNCCOc3ccc(O)c(C(N)=O)c3)cc2)n1C` (configuration not stated) returned a melting point of 123 to 125 °C.

For `COc1ccc(C(=O)O)nc1Oc1cccc(C(F)(F)F)c1`, the melting point was in the range of 116 to 118 °C.

Turning to `CCN(CC)C(=O)Nc1c(C(=O)c2ccccc2)[nH]c2cc(Cl)ccc12`, the melting point is 196 to 198 °C.

Compound `CCOC(=O)COc1cccc2c1CCCC2=O` returned a melting point of 58 to 60 °C.

For the compound `COc1ccc2c(c1)oc(=O)c1c3ccc(OC)cc3sc21`, the melting point lay in the range of 220 to 221 °C.

On to `O=C(Nc1cccnc1)NC(NC(=O)c1ccc(Cl)cc1)C(Cl)(Cl)Cl` (configuration not stated), for which the melting point lay within 166 to 168 °C.

The compound `CCC1(CCC(=O)OC(C)(C)C)CCCN2CCc3c([nH]c4ccccc34)C21` (configuration not stated) showed a melting point of 194 to 195 °C.

In the case of `CNC(=S)NCCOCc1c[nH]cn1`, the melting point fell in the range of 96 to 98 °C.

Compound `CCc1c(OC)nc(OC)nc1C(=O)c1cc(C)cc(C=O)c1` returned a melting point of 89 to 91 °C.

`CC(C)(C)OC(=O)NC(Cc1ccc([N+](=O)[O-])cc1)C(=O)NCC(=O)OCc1ccccc1` (configuration not stated) (Boc-[ξPhe(4-NO2)]-Gly-OBn) gave a melting point of 115 to 118 °C.

Turning to `CC1(C)CCC(C)(C)c2cc3c(cc21)C(=O)C=CC3=O`, the melting point lay in the range of 161 to 163 °C.

`COCCOCCCOc1ccc(/C=C/C(=O)O)c(Oc2ncc(C(F)(F)F)cc2Cl)c1` returned a melting point of 103 to 104 °C.

`Cn1c2c(c(=O)n(-c3cc(C(=O)O)c(Cl)cc3F)c1=O)CCC2` displayed a melting point of 270 to 273 °C.

As for `O=C(c1cc2ccc(O)cc2[nH]1)N1CCC(Cc2ccccc2)CC1`, the melting point was in the range of 214 to 215 °C.

For `FC(F)(F)c1cc(-c2ccc(Cl)c(Cl)c2)nc2c(-c3ccccn3)cnn12`, the melting point was 188 °C.

Take `C=CC(C)ONC(=O)c1nc(-c2ccc(Cl)c(OC)c2F)cc(N)c1Cl` (configuration not stated): the melting point was 176 to 179 °C.

Consider `CC(C)(C)c1ccc(Sc2cccc(C=C3SC(=S)NC3=O)c2)cc1`, for which the melting point was 188 to 190 °C.

`O=C(CNc1ccc(O)cc1)N1CCC(Cc2ccccc2)CC1` registered a melting point of 138 to 140 °C.

The compound `O=S(=O)(c1cccc(-c2cccc(-c3nc(-c4ccc(C(F)(F)F)cc4)cc(C(F)(F)F)n3)c2)c1)N(CCO)CCO` showed a melting point of 112 °C.

Turning to `N#Cc1cnc2cc(O)c(O)cc2c1Nc1ccc(Cl)cc1F`, the melting point is 270 to 272 °C.

For the compound `O=CC1CC(O)c2ccccc2C1O` (configuration not stated), the melting point amounted to 145 °C.

`O=C(CCc1nc(-c2ccccn2)no1)NC1CCN(Cc2ccc(Cl)c(F)c2)CC1` yielded a melting point of 132 °C.

With `Cc1cc(NC(=O)Cc2ccccc2C(F)(F)F)cc(C)c1S(=O)(=O)C[N+](=O)[O-]`, the melting point lay within 203 to 204 °C.

Regarding `COC(=O)c1c(-c2ccccc2Cl)c2cc(C)c(C)cc2n(C)c1=O`, the melting point is 202 to 203 °C.

Compound `COc1ccc2cc(-c3cnc(-c4cn(C)c5ccccc45)o3)ccc2c1` registered a melting point of 187 to 189 °C.

For `COC(=O)[C@@](C#N)(CCN(C)C)C(c1ccccc1OC)c1cccc2ccccc12` (single isomer, unassigned), the melting point lay in the range of 142 to 144 °C.

`CC1(C)c2ccccc2[C@H]2Nc3ccccc3[C@H]21` (relative stereo) registered a melting point of 57 to 59 °C.

With `O=C(NCCSSCCNC(=O)c1ccc(OC(F)(F)F)cc1)c1ccc(OC(F)(F)F)cc1`, the melting point is 150 to 151 °C.

For `CCOC(=O)c1cc2c3ccccc3n(Cc3ccccc3)c2nc1N1CCOCC1`, the melting point fell in the range of 151 to 152 °C.

The compound `COC1=Cc2c(n(C)c(=O)n2C)CC1=NNC(=N)N` had a melting point of 260 °C.

With `COC(=O)c1cc(-c2nc(COc3ccc(COc4nn(-c5ccccc5)cc4C=O)cc3OC)c(C)o2)ccc1OC`, the melting point lay within 165 to 166 °C.

In the case of `CCOc1nn(Cc2ccc(OCCn3ncc4ccccc4c3=O)cc2)cc1CCC(=O)O`, the melting point was in the range of 152 to 153 °C.

On to `CC(C)(C)[Si](C)(C)OC(CCCO)COc1ccc2c(=O)cc(-c3ccccc3)oc2c1` (configuration not stated), for which the melting point was 124 to 125 °C.

Compound `CN(C)c1cccc([N+](=O)[O-])c1CC=NNC(N)=O` had a melting point of 156 to 157 °C.

Take `Nc1nc(-c2cc(Cl)ccc2Cl)nc(N2CCC(CO)CC2)n1`: the melting point fell in the range of 173 to 175 °C.

`OCC(O)Cc1ncc[nH]1` (configuration not stated) showed a melting point of 98 to 100 °C.

As to `c1cc(OC2CCNCC2)c2cn[nH]c2c1`, the melting point is 162 to 165 °C.

`CC(=O)NCC1CC(c2ccc(C3=CCN(C(=O)CO)CC3)cc2)=NO1` (configuration not stated) yielded a melting point of 115 to 118 °C.

The compound `CCOC(=O)COc1ccc(C2=NNC(=O)NC2)cc1` returned a melting point of 181 to 183 °C.

With `COc1cc(-c2cn(Cc3ccccc3)c(=O)c3ccccc23)ccc1O`, the melting point is 165 to 167 °C.

Consider `Cc1c2ccccc2cc2[nH]c(S)nc12`, for which the melting point is > 300 °C.

As for `COc1ccc(CN(C(=O)C2CCCc3c(O)cccc32)c2ccc(C(C)C)cc2)cn1` (configuration not stated), the melting point worked out at 158 °C.

The compound `CN(C(CCn1c(=O)cc(C(F)(F)F)[nH]c1=O)C(=O)NO)S(=O)(=O)c1ccc(Oc2ccc(F)cc2)cc1` (configuration not stated) showed a melting point of 163 to 164 °C.

On to `CC(=O)Oc1ccc2ncnc(Nc3ccc(OCc4ccccn4)c(C)c3)c2c1`, for which the melting point was 149 to 151 °C.

For `O=[N+]([O-])c1cc(Br)nc(Br)c1`, the melting point fell in the range of 122 to 123 °C.

As for `Cc1ccc(OCCCN2CCC(Cc3ccc4ccccc4n3)CC2)c2c1NC(=O)C2(C)C`, the melting point is 150 to 151 °C.

As for `O=C1CCC(c2ccncc2)=NN1`, the melting point fell in the range of 185 to 187 °C.

In turn, `CC(CCCC(C)(C)Cl)C1CC=C2C3=C(CCC21C)C1(C)CCC(O)C(C)(C)C1CC3` (configuration not stated) gave a melting point of 131 to 133 °C.

Take `CCc1nn(-c2ccccc2)nc1C(C#N)C(=O)c1c(C)c(C)nn1C` (configuration not stated): the melting point was found to be 119 °C.

As to `CNc1ncn(-c2c(Cl)cccc2Cl)c(=O)n1`, the melting point was found to be 270 °C.

Regarding `C=CCN(CCC)S(=O)(=O)NC(=O)c1cc(N=C=S)c(F)cc1Cl`, the melting point lay within 83 to 85 °C.

For `O=[N+]([O-])c1ccc2c(c1)ncn2-c1ccccc1`, the melting point was 129 to 131 °C.

`O=C1C2=C(CCCC2)C(=O)N1c1c(F)cc(Cl)c2nc(Cl)sc12` returned a melting point of 139 to 141 °C.

In the case of `Clc1ccc(Nc2nnc(OCc3ccncc3)c3ccccc23)cc1`, the melting point lay in the range of 139 to 141 °C.

The compound `O=C(NCc1ccc(Br)cc1)Nc1cccc2[nH]ccc12` came in with a melting point of 198 °C.

As to `CC(=O)n1nc(SCc2ccccc2)nc1N`, the melting point is 146 °C.

Compound `CCCN=C(N)Nc1ccnc(SCCCC(=N)NC#N)n1` registered a melting point of 210 to 215 °C.

Turning to `O=C1CC=C(c2ccc(Cl)cc2)CC1`, the melting point was in the range of 59 to 62 °C.

The compound `COc1ccc(OCC(O)CNCCNc2c(C)c(=O)n(C)c(=O)n2C)cc1` (configuration not stated) gave a melting point of 115 to 117 °C.
